Data: the supplement of paper PMC10307832

What was measured:
Test in all cases: relative viability (nuclei count vs DMSO), 5 days (fraction); higher = more cells survive
[1] = compound: COc1cc2ncn(-c3cc(OCc4ccccc4C(F)(F)F)c(C(N)=O)s3)c2cc1OC + CS(=O)(=O)CCNCc1ccc(-c2ccc3ncnc(Nc4ccc(OCc5cccc(F)c5)c(Cl)c4)c3c2)o1 [Lapatinib] (partner 2 µM)
Outline: (§1)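 For relative viability, nuclei counts in treated wells were divided by those in vehicle wells. Lung cancer cell lines had been pin-tool dosed in 1536-well plates the day after seeding and cultured for 5 days, then fixed and stained in one step (final 0.05% Triton X-100, 1% formaldehyde, 1 ug/ml Hoechst) and imaged at 4×. Doses were one drug alone or a fixed anchor-drug dose plus five library-drug doses (not always all listed) in √10 steps, and values are duplicate-plate medians.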

[2] = compound: COc1cc2ncn(-c3cc(OCc4ccccc4C(F)(F)F)c(C(N)=O)s3)c2cc1OC + C[C@@H](Oc1cc(-c2cnn(C3CCNCC3)c2)cnc1N)c1c(Cl)ccc(F)c1Cl [Crizotinib] (partner 1 µM)
Outline: as §1

[3] = compound: COc1cc2ncn(-c3cc(OCc4ccccc4C(F)(F)F)c(C(N)=O)s3)c2cc1OC + Cc1cc(Nc2cc(N3CCN(C)CC3)nc(Sc3ccc(NC(=O)C4CC4)cc3)n2)n[nH]1 [Tozasertib] (partner 0.1 µM)
Outline: as §1

[4] = compound: COc1cc2ncn(-c3cc(OCc4ccccc4C(F)(F)F)c(C(N)=O)s3)c2cc1OC + Nc1ncn([C@H]2C[C@H](O)[C@@H](CO)O2)c(=O)n1 [Decitabine] (partner 2 µM)
Outline: as §1

Row | Cell Line | relative viability ([1]; first compound 0.05 µM) | relative viability ([1]; first compound 0.1581 µM) | relative viability ([1]; first compound 0.5 µM) | relative viability ([1]; first compound 1.581 µM) | relative viability ([1]; first compound 5 µM) | relative viability ([2]; first compound 0.05 µM) | relative viability ([2]; first compound 0.1581 µM) | relative viability ([2]; first compound 0.5 µM) | relative viability ([2]; first compound 1.581 µM) | relative viability ([2]; first compound 5 µM) | relative viability ([3]; first compound 0.05 µM) | relative viability ([3]; first compound 0.1581 µM) | relative viability ([3]; first compound 0.5 µM) | relative viability ([3]; first compound 1.581 µM) | relative viability ([3]; first compound 5 µM) | relative viability ([4]; first compound 0.05 µM) | relative viability ([4]; first compound 0.1581 µM) | relative viability ([4]; first compound 0.5 µM) | relative viability ([4]; first compound 1.581 µM) | relative viability ([4]; first compound 5 µM)
1 | NCI-H838 | 1.02 | 1.04 | 0.638 | 0.114 | 0.101 | 1.02 | 0.932 | 0.492 | 0.124 | 0.111 | 0.245 | 0.258 | 0.189 | 0.25 | 0.204 | 0.401 | 0.426 | 0.328 | 0.169 | 0.135
2 | NCI-H1355 | 0.966 | 0.964 | 0.771 | 0.22 | 0.152 | 1.08 | 1.03 | 0.768 | 0.258 | 0.157 | 0.515 | 0.635 | 0.302 | 0.202 | 0.135 | 0.29 | 0.333 | 0.282 | 0.187 | 0.169
3 | NCI-H1437 | 0.865 | 0.699 | 0.243 | 0.136 | 0.113 | 1.03 | 0.812 | 0.659 | 0.164 | 0.101 | 0.457 | 0.456 | 0.377 | 0.354 | 0.251 | 0.564 | 0.561 | 0.34 | 0.266 | 0.272
4 | NCI-H1650 | 0.789 | 0.853 | 0.293 | 0.196 | 0.186 | 1.03 | 1.03 | 0.765 | 0.17 | 0.194 | 0.304 | 0.324 | 0.221 | 0.225 | 0.154 | 0.396 | 0.382 | 0.329 | 0.219 | 0.138
5 | NCI-H1651 | 0.916 | 0.96 | 0.365 | 0.103 | 0.108 | 0.9 | 0.84 | 0.775 | 0.631 | 0.332 | 0.89 | 0.706 | 0.314 | 0.182 | 0.155 | 0.619 | 0.64 | 0.463 | 0.192 | 0.263
6 | NCI-H1666 | 0.905 | 0.674 | 0.298 | 0.229 | 0.325 | 0.917 | 0.913 | 0.606 | 0.289 | 0.326 | 0.569 | 0.507 | 0.388 | 0.343 | 0.39 | 0.749 | 0.719 | 0.693 | 0.501 | 0.424
7 | NCI-H1734 | 1.14 | 0.986 | 0.792 | 0.241 | 0.186 | 0.656 | 0.616 | 0.36 | 0.239 | 0.14 | 0.272 | 0.245 | 0.226 | 0.224 | 0.17 | 0.382 | 0.588 | 0.469 | 0.214 | 0.157
8 | NCI-H1755 | 1.03 | 1.09 | 0.868 | 0.33 | 0.281 | 0.829 | 0.828 | 0.644 | 0.389 | 0.334 | 0.517 | 0.553 | 0.518 | 0.376 | 0.285 | 0.702 | 0.682 | 0.716 | 0.57 | 0.397
9 | NCI-H1915 | 1.03 | 0.961 | 0.803 | 0.134 | 0.0963 | 0.916 | 0.898 | 0.639 | 0.123 | 0.102 | 0.499 | 0.515 | 0.352 | 0.166 | 0.142 | 0.249 | 0.261 | 0.228 | 0.143 | 0.0992
10 | NCI-H1944 | 0.972 | 1 | 0.729 | 0.165 | 0.114 | 1.32 | 1.18 | 1.1 | 0.351 | 0.113 | 0.297 | 0.3 | 0.274 | 0.23 | 0.216 | 0.468 | 0.465 | 0.399 | 0.235 | 0.153
11 | NCI-H1975 | 0.862 | 0.809 | 0.411 | 0.189 | 0.161 | 1.04 | 0.913 | 0.462 | 0.212 | 0.2 | 0.677 | 0.453 | 0.173 | 0.138 | 0.126 | 0.359 | 0.302 | 0.27 | 0.153 | 0.142
12 | NCI-H1993 | 0.954 | 0.852 | 0.594 | 0.466 | 0.51 | 0.898 | 0.877 | 0.693 | 0.58 | 0.614 | 0.581 | 0.613 | 0.566 | 0.637 | 0.661 | 0.448 | 0.631 | 0.506 | 0.364 | 0.413
13 | NCI-H2009 | 0.868 | 0.777 | 0.318 | 0.169 | 0.146 | 1.01 | 0.825 | 0.445 | 0.208 | 0.253 | 0.625 | 0.625 | 0.353 | 0.301 | 0.227 | 0.344 | 0.301 | 0.259 | 0.197 | 0.17
14 | NCI-H2023 | 0.936 | 0.975 | 0.274 | 0.0863 | 0.095 | 0.605 | 0.67 | 0.424 | 0.138 | 0.0906 | 0.24 | 0.341 | 0.164 | 0.132 | 0.0834 | 0.203 | 0.213 | 0.159 | 0.0779 | 0.0772
15 | NCI-H2085 | 0.824 | 0.748 | 0.527 | 0.347 | 0.322 | 0.842 | 0.848 | 0.629 | 0.517 | 0.309 | 0.761 | 0.738 | 0.403 | 0.407 | 0.454 | 0.508 | 0.502 | 0.431 | 0.36 | 0.363
16 | NCI-H2087 | 0.995 | 1.06 | 0.582 | 0.175 | 0.121 | 0.934 | 0.793 | 0.32 | 0.18 | 0.139 | 0.255 | 0.253 | 0.144 | 0.126 | 0.114 | 0.317 | 0.227 | 0.152 | 0.0875 | 0.106
